Measured values taken from PubChem BioAssay AID1259407 (Chemical Carcinogenesis Research Information System (CCRIS), 2018).
Active and inactive are the calls of the source. No rule for the calls is given here.

System: CCRIS mutagenicity, Ames/micronucleus/aberration tests
Test: CCRIS mutagenicity studies
[1] = Test System: AMES SALMONELLA TYPHIMURIUM, Strain/Indicator: TA98, Metabolic Activation: NONE, Method: PREINCUBATION
[2] = Test System: AMES SALMONELLA TYPHIMURIUM, Strain/Indicator: TA100, Metabolic Activation: NONE, Method: PREINCUBATION
[3] = Test System: AMES SALMONELLA TYPHIMURIUM, Strain/Indicator: TA1535, Metabolic Activation: NONE, Method: PREINCUBATION
[4] = Test System: AMES SALMONELLA TYPHIMURIUM, Strain/Indicator: TA1537, Metabolic Activation: NONE, Method: PREINCUBATION

## CC(CCN(C)C)N(C)C (stereo not drawn)
Test System: AMES SALMONELLA TYPHIMURIUM, Strain/Indicator: TA98, Metabolic Activation: HAMSTER, LIVER, S-9, AROCLOR 1254 (10%), Method: PREINCUBATION
  mutagenic call: inactive; negative
[1]
  mutagenic call: inactive; negative
Test System: AMES SALMONELLA TYPHIMURIUM, Strain/Indicator: TA98, Metabolic Activation: RAT, LIVER, S-9, AROCLOR 1254 (10%), Method: PREINCUBATION
  mutagenic call: inactive; negative
Test System: AMES SALMONELLA TYPHIMURIUM, Strain/Indicator: TA98, Metabolic Activation: RAT, LIVER, S-9, PCB, Method: PREINCUBATION
  mutagenic call: inactive; negative
Test System: AMES SALMONELLA TYPHIMURIUM, Strain/Indicator: TA100, Metabolic Activation: HAMSTER, LIVER, S-9, AROCLOR 1254 (10%), Method: PREINCUBATION
  mutagenic call: inactive; negative
[2]
  mutagenic call: inactive; negative
Test System: AMES SALMONELLA TYPHIMURIUM, Strain/Indicator: TA100, Metabolic Activation: RAT, LIVER, S-9, AROCLOR 1254 (10%), Method: PREINCUBATION
  mutagenic call: inactive; negative
Test System: AMES SALMONELLA TYPHIMURIUM, Strain/Indicator: TA100, Metabolic Activation: RAT, LIVER, S-9, PCB, Method: PREINCUBATION
  mutagenic call: inactive; negative
Test System: AMES SALMONELLA TYPHIMURIUM, Strain/Indicator: TA1535, Metabolic Activation: HAMSTER, LIVER, S-9, AROCLOR 1254 (10%), Method: PREINCUBATION
  mutagenic call: inactive; negative
[3]
  mutagenic call: inactive; negative
Test System: AMES SALMONELLA TYPHIMURIUM, Strain/Indicator: TA1535, Metabolic Activation: RAT, LIVER, S-9, AROCLOR 1254 (10%), Method: PREINCUBATION
  mutagenic call: inactive; negative
Test System: AMES SALMONELLA TYPHIMURIUM, Strain/Indicator: TA1537, Metabolic Activation: HAMSTER, LIVER, S-9, AROCLOR 1254 (10%), Method: PREINCUBATION
  mutagenic call: inactive; negative
[4]
  mutagenic call: inactive; negative
Test System: AMES SALMONELLA TYPHIMURIUM, Strain/Indicator: TA1537, Metabolic Activation: RAT, LIVER, S-9, AROCLOR 1254 (10%), Method: PREINCUBATION
  mutagenic call: inactive; negative

## COc1cccc2c1[C@H](CO)N1[C@@H](C#N)[C@@H]3C[C@@H](C(=O)O)[C@H]([C@@H]1C2)N3C
Test System: Mouse lymphoma, Strain/Indicator: L5178Y (tk+/tk-), Metabolic Activation: None, Method: Suspension/plate
  mutagenic call: active; positive
Test System: Mouse lymphoma, Strain/Indicator: L5178Y (tk+/tk-), Metabolic Activation: Rat, Liver, S-9, Aroclor 1254, Method: Suspension/plate
  mutagenic call: active; positive

## Cc1c2ccccc2c(COS(=O)(=O)O)c2ccccc12
[1]
  mutagenic call: active; positive

## CC(=O)OC1CC(C)OC(C)O1 (stereo not drawn)
Test System: AMES SALMONELLA TYPHIMURIUM, Strain/Indicator: TA98, Metabolic Activation: HAMSTER, LIVER, S-9, AROCLOR 1254, Method: PREINCUBATION
  mutagenic call: inactive; negative
[1]
  mutagenic call: inactive; negative
Test System: AMES SALMONELLA TYPHIMURIUM, Strain/Indicator: TA98, Metabolic Activation: RAT, LIVER, S-9, AROCLOR 1254, Method: PREINCUBATION
  mutagenic call: inactive; negative
Test System: AMES SALMONELLA TYPHIMURIUM, Strain/Indicator: TA100, Metabolic Activation: HAMSTER, LIVER, S-9, AROCLOR 1254, Method: PREINCUBATION
  mutagenic call: active; positive
[2]
  mutagenic call: inactive; negative
Test System: AMES SALMONELLA TYPHIMURIUM, Strain/Indicator: TA100, Metabolic Activation: RAT, LIVER, S-9, AROCLOR 1254, Method: PREINCUBATION
  mutagenic call: active; positive
Test System: AMES SALMONELLA TYPHIMURIUM, Strain/Indicator: TA1535, Metabolic Activation: HAMSTER, LIVER, S-9, AROCLOR 1254, Method: PREINCUBATION
  mutagenic call: inactive; negative
[3]
  mutagenic call: inactive; negative
Test System: AMES SALMONELLA TYPHIMURIUM, Strain/Indicator: TA1535, Metabolic Activation: RAT, LIVER, S-9, AROCLOR 1254, Method: PREINCUBATION
  mutagenic call: inactive; negative
Test System: AMES SALMONELLA TYPHIMURIUM, Strain/Indicator: TA1537, Metabolic Activation: HAMSTER, LIVER, S-9, AROCLOR 1254, Method: PREINCUBATION
  mutagenic call: inactive; negative
[4]
  mutagenic call: inactive; negative
Test System: AMES SALMONELLA TYPHIMURIUM, Strain/Indicator: TA1537, Metabolic Activation: RAT, LIVER, S-9, AROCLOR 1254, Method: PREINCUBATION
  mutagenic call: inactive; negative

## O[C@@H]1[C@@H]2O[C@@H]2c2cc3c(ccc4ccccc43)cc2[C@H]1O
Test System: CHINESE HAMSTER V-79, Strain/Indicator: V-79/8-AZAGUANINE, Metabolic Activation: NONE, Method: STANDARD PLATE
  mutagenic call: active; positive

## Oc1cc(Cl)ccc1Oc1ccc(Cl)cc1Cl
End Point: In vitro chromosomal aberrations, Test System: Chinese hamster ovary strain K1-BH4 cells, Metabolic Activation: None
  mutagenic call: inactive; negative
End Point: In vitro chromosomal aberrations, Test System: Chinese hamster ovary strain K1-BH4 cells, Metabolic Activation: S-9
  mutagenic call: inactive; negative
End Point: In vivo chromosomal aberrations, Test System: Bone marrow, Species: Rat, Strain/Sex: Wistar/Female, Route: Gavage
  mutagenic call: inactive; negative
End Point: In vivo chromosomal aberrations, Test System: Bone marrow, Species: Rat, Strain/Sex: Wistar/Male, Route: Gavage
  mutagenic call: inactive; negative
End Point: In vivo micronucleus, Test System: Bone marrow, Species: Mouse, Strain/Sex: CD-1 SPF Swiss albino, Route: Gavage
  mutagenic call: inactive; negative
Test System: Ames Salmonella typhimurium, Strain/Indicator: TA98, Metabolic Activation: None, Method: Preincubation
  mutagenic call: inactive; negative
Test System: Ames Salmonella typhimurium, Strain/Indicator: TA98, Metabolic Activation: None, Method: Standard Plate
  mutagenic call: inactive; negative
Test System: Ames Salmonella typhimurium, Strain/Indicator: TA98, Metabolic Activation: S-9, Method: Preincubation
  mutagenic call: inactive; negative
Test System: Ames Salmonella typhimurium, Strain/Indicator: TA98, Metabolic Activation: S-9, Method: Standard Plate
  mutagenic call: inactive; negative
Test System: Ames Salmonella typhimurium, Strain/Indicator: TA100, Metabolic Activation: None, Method: Preincubation
  mutagenic call: inactive; negative
Test System: Ames Salmonella typhimurium, Strain/Indicator: TA100, Metabolic Activation: None, Method: Standard Plate
  mutagenic call: inactive; negative
Test System: Ames Salmonella typhimurium, Strain/Indicator: TA100, Metabolic Activation: S-9, Method: Preincubation
  mutagenic call: inactive; negative
Test System: Ames Salmonella typhimurium, Strain/Indicator: TA100, Metabolic Activation: S-9, Method: Standard Plate
  mutagenic call: inactive; negative
Test System: Ames Salmonella typhimurium, Strain/Indicator: TA 1535, Metabolic Activation: None, Method: Preincubation
  mutagenic call: inactive; negative
Test System: Ames Salmonella typhimurium, Strain/Indicator: TA 1535, Metabolic Activation: None, Method: Standard Plate
  mutagenic call: inactive; negative
Test System: Ames Salmonella typhimurium, Strain/Indicator: TA 1535, Metabolic Activation: S-9, Method: Preincubation
  mutagenic call: inactive; negative
Test System: Ames Salmonella typhimurium, Strain/Indicator: TA 1535, Metabolic Activation: S-9, Method: Standard Plate
  mutagenic call: inactive; negative
Test System: Ames Salmonella typhimurium, Strain/Indicator: TA1537, Metabolic Activation: None, Method: Preincubation
  mutagenic call: inactive; negative
Test System: Ames Salmonella typhimurium, Strain/Indicator: TA1537, Metabolic Activation: None, Method: Standard Plate
  mutagenic call: inactive; negative
Test System: Ames Salmonella typhimurium, Strain/Indicator: TA1537, Metabolic Activation: S-9, Method: Preincubation
  mutagenic call: inactive; negative
Test System: Ames Salmonella typhimurium, Strain/Indicator: TA1537, Metabolic Activation: S-9, Method: Standard Plate
  mutagenic call: inactive; negative
Test System: Ames Salmonella typhimurium, Strain/Indicator: TA1538, Metabolic Activation: None, Method: Standard Plate
  mutagenic call: inactive; negative
Test System: Ames Salmonella typhimurium, Strain/Indicator: TA1538, Metabolic Activation: S-9, Method: Standard Plate
  mutagenic call: inactive; negative
